This is an account of results in patent US20240294543A1, “CYCLOHEPTA-THIENO-DIAZEPINE DERIVATIVES AS GABA A GAMMA1 PAM” (Hoffmann-La Roche Inc., priority 2021, published 2024).

For test [1], the target named is human GABAA α5β2γ1 receptor (Homo sapiens (Human), UniProt P31644+Q8N1C3). Put plainly: Radioligand binding assay, competition for [3H]RO7239181, γ1-containing GABAA subtypes. The method, then:
The affinity of compounds at GABAA γ1 subunit-containing receptors was measured by competition for [^3H]RO7239181 (67.3 Ci/mmol; Roche) binding to membranes from HEK293F cells (ThermoFisher R79007) expressing human (transiently transfected) receptors of composition α5β2γ1, α2β2γ1, α1β2γ1. For better protein expression of the α2 subunit-containing receptors, the 28 amino acid long signal peptide (Met1 to Ala28) of the human GABAA α2 subunit was substituted by the 31 amino acid long signal peptide (Met1 to Ser31) of human GABAA α5 subunit.
(§1) Harvested pellets from HEK293F cells expressing the different GABAA receptor subtypes were resuspended in Mannitol Buffer pH 7.2-7.4 (Mannitol 0.29 M, Triethylamine 10 mM, Acetic acid 10 mM, EDTA 1 mM plus protease inhibitors (20 tablets Complete, Roche Diagnostics Cat. No. 05 056 489 001 per liter)), washed two times and then resuspended at 1:10 to 1:15 dilution in the same buffer. Cell disruption was performed by stirring the suspension in a Parr vessel #4637 at 435 psi for 15 minutes, and then the suspensions were centrifuged at 1000×g for 15 minutes at 4° C. (Beckman Avanti J-HC; rotor JS-4.2). The supernatant (S1) was transferred in a 21 Schott flask and the pellet (P1) was resuspended with Mannitol Buffer up to 175 ml. The resuspended pellet was transferred into a 250 ml Corning centrifugal beaker and centrifuged at 1500×g for 10 minutes at 4° C. (Beckman Avanti J-HC; rotor JS-4.2). The supernatant (S1) was then transferred in the 21 Schott flask and the pellet was discarded. The supernatants (S1) were centrifuged in 500 ml Beckman polypropylene centrifugal beaker at 15'000×g for 30 minutes at 4° C. (Beckman Avanti J-20 XP; rotor JLA-10.500). The pellet (P2) was resuspended with Mannitol Buffer 1:1 and frozen at −80° C. The supernatant (S2) was centrifuged in 100 ml Beckman polypropylene centrifugal tubes at 48000×g for 50 minutes at 4° C. (Beckman Avanti J-20 XP; rotor JA-18). The supernatant (S3) was discarded and the pellet (P3) was resuspended with 1:1 Mannitol Buffer. The P2 and P3 protein concentration was determined with the BIORAD Standard assay method with bovine serum albumin as standard and measured on the NANO-Drop 1000. The membrane suspension was aliquots (500 μl per tube) and stored at −80° C. until required.
(§2) Membrane homogenates were resuspended and polytronised (Polytron PT1200E Kinematica AG) in Potassium Phosphate 10 mM, KCl 100 mM binding buffer at pH 7.4 to a final assay concentration determined with a previous experiment.
Radioligand binding assays were carried out in a volume of 200 μL (96-well plates) which contained 100 μL of cell membranes, [^3H]RO7239181 at a concentration of 1.5 nM (α5β2γ1) or 20-30 nM (α1β2γ1, α2β2γ1) and the test compound in the range of [0.3-10000]×10^−9 M. Nonspecific binding was defined by 10×10^−6 (α5β2γ1) and 30×10^−6 M RO7239181 and typically represented less than 5% (α5β2γ1) and less than 20% (α1β2γ1, α2β2γ1) of the total binding. Assays were incubated to equilibrium for 1 hour at 4° C. and then, membranes were filtered onto unifilter (96-well white microplate with bonded GF/C filters preincubated 20-50 minutes in 0.3% Polyethylenimine) with a Filtermate 196 harvester (Packard BioScience) and washed 4 times with cold Potassium Phosphate 10 mM pH 7.4, KCl 100 mM binding buffer. After anhydrousing, filter-retained radioactivity was detected by liquid scintillation counting. Ki values were calculated using Excel-Fit (Microsoft) and are the means of two determinations.

The target in test [2] is human GABAA α1β2γ1 receptor (Homo sapiens (Human), UniProt P14867+Q8N1C3). The test is described as above. Conditions: [3H]RO7239181 20-30 nM, Table 1. The method, then:
(§3) The affinity of compounds at GABAA γ1 subunit-containing receptors was measured by competition for [^3H]RO7239181 (67.3 Ci/mmol; Roche) binding to membranes from HEK293F cells (ThermoFisher R79007) expressing human (transiently transfected) receptors of composition α5β2γ1, α2β2γ1, α1β2γ1.
as §1, §2
(§4) Assays were incubated to equilibrium for 1 hour at 4° C. and then, membranes were filtered onto unifilter (96-well white microplate with bonded GF/C filters preincubated 20-50 minutes in 0.3% Polyethylenimine) with a Filtermate 196 harvester (Packard BioScience) and washed 4 times with cold Potassium Phosphate 10 mM pH 7.4, KCl 100 mM binding buffer. After anhydrousing, filter-retained radioactivity was detected by liquid scintillation counting. Ki values were calculated using Excel-Fit (Microsoft) and are the means of two determinations.

Test [3] concerns the target human GABAA α2β2γ1 receptor (Homo sapiens (Human), UniProt P47869+Q8N1C3). Described as above. Conditions: Ki h-GABAA α2β2γ1, membranes of HEK293F cells, [3H]RO7239181 20-30 nM. The method, then:
as §3, §1, §2, §4

Test [4] has as its target human GABAA α1β3γ2 receptor (Homo sapiens (Human), UniProt P14867+P18507). The test is described as follows: Radioligand binding assay, competition for [3H]Flumazenil, γ2-containing GABAA subtypes. Conditions: for γ2/γ1 Selectivity Ratio: Ki α1β3γ2 (nM)/Ki α2β2γ1 (nM); for LogSel: Log[Ki α1β3γ2 (nM)/Ki α2β2γ1 (nM)]. On the procedure:
The affinity of compounds at GABAA γ2 subunit-containing receptors was measured by competition for [^3H]Flumazenil (81.1 Ci/mmol; Roche) binding to HEK293F cells expressing human (transiently transfected) receptors of composition α1β3γ2.
Harvested pellets from HEK293F cells expressing the different GABAA γ2 receptor subtypes were resuspended in Mannitol Buffer pH 7,2-7,4 and processed as described above for the cells expressing the GABAA γ1 subunit-containing receptors.
Assays were incubated to equilibrium for 1 hour at 4° C. and harvested onto GF/C uni-filters (Packard) by filtration using a Packard harvester and washing with ice-cold wash buffer (50 mM Tris; pH 7.5). After anhydrousing, filter-retained radioactivity was detected by liquid scintillation counting. Ki values were calculated using Excel-Fit (Microsoft) and are the means of two determinations.

Where [5] appears, read: Ki h-GABAA α1β2γ1, membranes of HEK293F cells.
The mark [6] stands for this setting: HEK293F cells, [3H]Flumazenil 1 nM, Table 1, read-out: Ki h-GABAA α1β3γ2.

Molecules are shown by their SMILES. Read-outs that look alike come from different tables or passages of the source.

For `Cc1nnc2n1-c1sc3c(c1C(c1c(F)cccc1F)=NC2)CCOCC3` [Example 5, 9-(2,6-difluorophenyl)-3-methyl-14-oxa-18-thia-2,4,5,8-tetrazatetracyclo[8.8.0.02,6.011,17]octadeca-1(10),3,5,8,11(17)-pentaene], the Ki in test [1] turned out to be 10.5 nM; in test [2] (setting [5]) it was 246 nM; in test [3] (Table 1), 63.5 nM; in test [3] (Table 2), 63.5 nM; in test [4], 1260 nM. Moreover, in test [4] (Table 1), the “γ2/γ1 Selectivity Ratio” value is 19.8. In addition, the LogSel in test [4] (Table 1) stood at 1.30.
For the compound `C[C@@H]1N=C(c2c(F)cccc2F)c2c(sc3c2COCCO3)-n2cc(C(=O)NCC(C)(C)O)nc21` [Example 59, (7S)-9-(2,6-difluorophenyl)-N-(2-hydroxy-2-methyl-propyl)-7-methyl-13,16-dioxa-18-thia-2,5,8-triazatetracyclo[8.8.0.02,6.011,17]octadeca-1(10),3,5,8,11(17)-pentaene-4-carboxamide], the inhibition constant (Ki) in test [1] came to 2.27 nM; in test [2] (setting [5]), 21.7 nM; in test [3] (Table 1) it was 8.9 nM; in test [3] (Table 2), 8.9 nM; in test [4] (setting [6]), 1270 nM. For the same compound, in test [4] (Table 1), the “γ2/γ1 Selectivity Ratio” value came out at 142.9. Moreover, the LogSel in test [4] (Table 1) is on record as 2.16.
`[2H]C1([2H])OCc2c(sc3c2C(c2c(F)cccc2F)=N[C@@H](C)c2nc(C(=O)NCC)nn2-3)OC1([2H])[2H]` [Example 38, (7S)-14,14,15,15-tetradeuterio-9-(2,6-difluorophenyl)-N-ethyl-7-methyl-13,16-dioxa-18-thia-2,3,5,8-tetrazatetracyclo[8.8.0.02,6.011,17]octadeca-1(10),3,5,8,11(17)-pentaene-4-carboxamide]: the inhibition constant Ki in test [1] was 3.59 nM; in test [2] (membranes of HEK293F cells, read-out: Ki h-GABAA α1β2γ1), 122 nM; in test [3] (Table 1), 17.9 nM; in test [3] (Table 2), 17.9 nM; in test [4] (setting [6]), 4030 nM. Moreover, in test [4] (Table 1), the “γ2/γ1 Selectivity Ratio” value was determined as 224.3. Moreover, in test [4] (Table 1), the LogSel stood at 2.35.
In the case of `[2H]C1([2H])OCc2c(sc3c2C(c2c(F)cccc2F)=N[C@@H](C)c2nc(C(=O)N4CC(OCC)C4)nn2-3)OC1([2H])[2H]` [Example 32, (3-Ethoxyazetidin-1-yl)-[(7S)-14,14,15,15-tetradeuterio-9-(2,6-difluorophenyl)-7-methyl-13,16-dioxa-18-thia-2,3,5,8-tetrazatetracyclo[8.8.0.02,6.011,17]octadeca-1(10),3,5,8,11(17)-pentaen-4-yl]methanone], the Ki in test [1] was 1.88 nM; in test [3] (Table 1), 7.7 nM; in test [3] (Table 2) it was 7.7 nM; in test [4] (setting [6]), 5780 nM. Also, the “γ2/γ1 Selectivity Ratio” value in test [4] (Table 1) was determined as 747.9. The same compound returned a LogSel in test [4] (Table 1) of 2.87.
Consider `C[C@@H]1N=C(c2c(F)cccc2F)c2c(sc3c2COCCC3)-n2nc(C(=O)NC[C@](C)(O)C(F)(F)F)nc21` [Example 69, (7S)-9-(2,6-difluorophenyl)-7-methyl-N-[(2S)-3,3,3-trifluoro-2-hydroxy-2-methyl-propyl]-13-oxa-18-thia-2,3,5,8-tetrazatetracyclo[8.8.0.02,6.011,17]octadeca-1(10),3,5,8,11(17)-pentaene-4-carboxamide], for which the inhibition constant Ki in test [1] amounted to 7.8 nM; in test [3] (Table 1), 62 nM; in test [3] (Table 2), 62 nM; in test [4] (setting [6]) it was 3700 nM. Further, the “γ2/γ1 Selectivity Ratio” value in test [4] (Table 1) was 59.7. Besides, the LogSel in test [4] (Table 1) amounted to 1.78.
`Cc1nnc2n1-c1sc3c(c1C(c1c(F)cccc1F)=N[C@H]2C)CCCCC3F` (single isomer, unassigned) [Example 10]: the Ki in test [1] was determined as 2.72 nM; in test [3] (Table 1) it was 18.2 nM; in test [3] (Table 2), 18.2 nM; in test [4], 1160 nM. The “γ2/γ1 Selectivity Ratio” value in test [4] (Table 1) is given as 63.6. For the same compound, in test [4] (Table 1), the LogSel is reported as 1.80.
Turning to `Cc1nnc2n1-c1sc3c(c1C(c1c(F)cccc1F)=N[C@H]2C)CCC[C@@H](F)C3` (single isomer, unassigned) [Example 16], the inhibition constant Ki in test [1] stood at 13.6 nM; in test [2] (setting [5]) it was 421 nM; in test [3] (Table 1), 89.8 nM; in test [3] (Table 2), 89.8 nM; in test [4], 1420 nM. The “γ2/γ1 Selectivity Ratio” value in test [4] (Table 1) came to 15.8. The LogSel in test [4] (Table 1) is given as 1.20.
Consider `Cc1cn2c(n1)[C@H](C)N=C(c1c(F)cccc1F)c1c-2sc2c1COCCC2` [Example 58, (7S)-9-(2,6-difluorophenyl)-4,7-dimethyl-13-oxa-18-thia-2,5,8-triazatetracyclo[8.8.0.02,6.011,17]octadeca-1(10),3,5,8,11(17)-pentaene], for which the Ki in test [1] turned out to be 2.59 nM; in test [3] (Table 1), 25 nM; in test [3] (Table 2), 25 nM; in test [4], 1400 nM. Moreover, the “γ2/γ1 Selectivity Ratio” value in test [4] (Table 1) is 56.0. Moreover, the LogSel in test [4] (Table 1) amounted to 1.75.
For `Cc1nnc2n1-c1sc3c(c1C(c1c(F)cccc1F)=N[C@H]2C)COCC[C@@H]3F` (single isomer, unassigned) [Example 55], the Ki was 9 nM in test [1], 47.8 nM in test [3] (Table 1), 47.8 nM in test [3] (Table 2) and 2690 nM in test [4]. The “γ2/γ1 Selectivity Ratio” value in test [4] (Table 1) was 56.2. The same compound showed a LogSel in test [4] (Table 1) of 1.75.

What is called Ki is a measure of affinity in units of concentration, obtained from inhibition or displacement.
